Series [1] has as its target T1, human amylin receptor (calcitonin receptor co-expressed with receptor activity modifying protein, RAMP3) (hAMYR3) (Homo sapiens, UniProt O60896+P30988).
T1 construct: expressed in transfected cells
T1 sequence (P30988 25-474): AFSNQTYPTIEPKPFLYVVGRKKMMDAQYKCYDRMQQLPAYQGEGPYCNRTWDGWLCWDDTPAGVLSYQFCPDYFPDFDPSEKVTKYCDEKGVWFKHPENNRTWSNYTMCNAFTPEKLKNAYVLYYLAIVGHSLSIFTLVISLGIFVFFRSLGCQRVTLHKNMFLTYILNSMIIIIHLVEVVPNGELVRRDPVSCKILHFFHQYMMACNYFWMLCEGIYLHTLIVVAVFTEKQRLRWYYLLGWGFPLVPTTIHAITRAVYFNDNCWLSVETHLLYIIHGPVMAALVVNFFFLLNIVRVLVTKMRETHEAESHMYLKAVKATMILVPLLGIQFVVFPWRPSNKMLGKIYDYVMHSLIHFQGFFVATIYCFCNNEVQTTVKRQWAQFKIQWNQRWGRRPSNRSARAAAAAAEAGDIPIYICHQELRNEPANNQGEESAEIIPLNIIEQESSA
T1 sequence (O60896 24-148 partner): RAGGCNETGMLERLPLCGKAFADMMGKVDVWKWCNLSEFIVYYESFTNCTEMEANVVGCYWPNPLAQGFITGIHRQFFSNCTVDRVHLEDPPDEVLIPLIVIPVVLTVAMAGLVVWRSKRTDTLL
The series can be described thus: cAMP production in 1321N1 cells with stable recombinant expression of human amylin receptor (hAMYR3). In kind it is cell-based. The conditions noted are these: for Ratio (selectivity hAMYR vs hCTR, ratio of EC50 values at the two receptors): EC50 hCTR / EC50 hAMYR3; for EC50: cAMP, 1321N1 cells, assay buffer with 0.1% BSA, read-out: EC50 (pM) hAMYR3. In short, it runs like this:
(§1)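 Receptor-expressing cells (human receptors in 1321N1, rat receptors in HEK) incubated 30 min at room temperature with peptide in HBSS/HEPES pH 7.4, 0.1% BSA, 0.5 mM IBMX. cAMP read by HTRF; EC50 from 4-parameter fit as % of maximal amylin or calcitonin response.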
A general note: cAMP levels reflect the balance of adenylyl cyclase and phosphodiesterase activity.

For series [2], the target named is T2, human calcitonin receptor (hCTR) (Homo sapiens, UniProt P30988).
T2 construct: expressed in transfected cells
T2 sequence (P30988 25-474): T1 sequence (P30988 25-474)
The series can be described thus: cAMP production in 1321N1 cells with stable recombinant expression of human calcitonin receptor (hCTR). In kind it is cell-based. The conditions noted are these: cAMP, 1321N1 cells, assay buffer with 0.1% BSA; read-out: EC50 (pM) hCTR. In short, it runs like this:
as §1

A short description of series [3]: Thioflavin T fibrillation assay. In kind it is physicochemical. The conditions noted are these: ThT fibrillation assay; peptide 1 mg/mL in 25 mM sodium acetate buffer pH 4.0; 6 days at 37 °C with shaking; >144 h = no increase. In short, it runs like this:
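Peptides at 1 mg/mL in 25 mM sodium acetate pH 4.0 with ThT (from 0.25 mM stock), incubated 6 days at 37 °C with intermittent orbital shaking at 500–750 rpm. Fluorescence (ex 444/em 480 nm) read every 30 min; value is average time to a rise in baseline-corrected signal.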

A short description of series [4]: Pharmacokinetic determination via IV and SC administration in Sprague Dawley rats. The conditions noted are these: male, rat, plasma, 20 nmol/kg.
In series [5] the target is T3, rat amylin receptor (calcitonin receptor co-expressed with receptor activity modifying protein, RAMP3) (Rat AMYR3) (Rattus norvegicus, UniProt P32214+Q9JJ73).
T3 construct: expressed in transfected cells
T3 sequence (P32214 25-516): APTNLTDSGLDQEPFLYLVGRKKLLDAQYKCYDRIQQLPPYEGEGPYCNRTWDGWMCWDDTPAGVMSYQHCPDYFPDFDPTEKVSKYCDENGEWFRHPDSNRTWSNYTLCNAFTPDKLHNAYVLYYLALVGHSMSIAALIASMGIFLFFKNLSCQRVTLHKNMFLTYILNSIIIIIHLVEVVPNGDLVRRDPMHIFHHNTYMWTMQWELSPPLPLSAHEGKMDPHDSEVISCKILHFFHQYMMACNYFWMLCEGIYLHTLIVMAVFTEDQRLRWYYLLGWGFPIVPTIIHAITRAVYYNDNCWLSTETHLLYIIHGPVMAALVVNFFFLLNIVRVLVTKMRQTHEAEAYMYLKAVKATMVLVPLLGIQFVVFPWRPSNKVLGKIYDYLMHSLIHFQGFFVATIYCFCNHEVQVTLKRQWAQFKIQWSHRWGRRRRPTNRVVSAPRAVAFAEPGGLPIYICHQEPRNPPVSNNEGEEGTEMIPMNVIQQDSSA
T3 sequence (Q9JJ73 23-147 partner): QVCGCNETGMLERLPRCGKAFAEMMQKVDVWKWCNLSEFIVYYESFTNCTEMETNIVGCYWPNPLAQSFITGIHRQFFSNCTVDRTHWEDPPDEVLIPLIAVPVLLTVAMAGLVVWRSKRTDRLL
The series is described as follows: cAMP production in HEK cells with stable recombinant expression of rat amylin receptor (Rat AMYR3). In kind it is cell-based. The conditions noted are these: assay buffer with 0.1% BSA. The procedure:
(§2) The functional activities of lipidated pramlintide analogue peptides, such as cAMP production, were tested in 1321N1 cell line with stable recombinant expression of human calcitonin receptor (hCTR) or human amylin receptor (calcitonin receptor co-expressed with receptor activity modifying protein, RAMP3) (hAMYR3) or HEK cells with stable recombinant expression of rat calcitonin receptor (rat CTR) or rat amylin receptor (calcitonin receptor co-expressed with receptor activity modifying protein, RAMP3) (Rat AMYR3).
(§3) Cryopreserved cell stock was thawed rapidly in a water-bath, suspended in assay buffer (0.1% BSA (Sigma # A3059) in HBSS (Sigma # H8264) with 25 mM HEPES, pH 7.4 and containing 0.5 mM IB MX (Sigma# 17018)) and spun at 240×g for 5 minutes. Cells were re-suspended in assay buffer at a batch-dependent optimized concentration (e.g. hCTR cells at 0.125×10^5 cells/mL, hAMYR3 cells at 0.125×10^5 cells/mL, rat CTR cells at 1x10^5 cells/mL, rat AMYR3 at 2×10^5 cells/mL).
(§4) The test peptide stock was prepared in DMSO and diluted in assay buffer to reach stated concentrations and transferred in duplicates into a 384-black shallow well microtitre assay plate (Corning # 3676). Cells were added to the assay plate, incubated at room temperature for 30 minutes and the cAMP level measured using cAMP dynamic 2 HTRF kit (Cisbio, Cat # 62AM4PEJ), following the two step protocol as per manufacturer's recommendations. The plates were read on an Envision (Perkin Elmer) using excitation wavelength of 320 nm and emission wavelengths of 620nm & 665 nm.
(§5) Data was transformed to % Delta F as described in the manufacturer's guidelines and analyzed as percent activation of maximal amylin or calcitonin effect by 4-parameter logistic fit to determine EC50 values. The selectivity of a peptide to hAMYR vs hCTR is defined as a ratio of EC50 values at the two receptors.

Series [6] has as its target T4, rat calcitonin receptor (rat CTR) (Rattus norvegicus, UniProt P32214).
T4 construct: expressed in transfected cells
T4 sequence (P32214 25-516): T3 sequence (P32214 25-516)
The series can be described thus: cAMP production in HEK cells with stable recombinant expression of rat calcitonin receptor (rat CTR). In kind it is cell-based. The note with it: assay buffer with 0.1% BSA. The procedure: as §2, §3, §4, §5

A further series has as its system lean rats. The series can be described thus: Rat acute food intake study. The conditions noted are these: lean male Sprague Dawley rats, 20 nmol/kg subcutaneously. It counts as in vivo. As for the experimental part:
Male Sprague Dawley rats were obtained from Taconic Denmark, ApS at approximately 7 weeks of age. Rats were implanted with a microchip for identification, housed 4/cage with enrichment, free access to food and water, and allowed one week acclimatisation while non-invasive characterization was performed. Rats were on a 12:12 light:dark cycle that switches at 1pm:1am. Food intake was monitored via the HM2 system (Lafayette Instrument) that allows for monitoring in a home cage. As each rat enters an access tunnel to feed, an IR beam is broken, and the implanted microchip is read. Resulting changes to food weight is then assigned to the specific animal. Social order has shown no impact to overall feeding patterns and amounts.
Rats were sorted into groups based on Day -1 body weight and 24-hour accumulated food intake (n=7 per group). On Day 0 rats were weighed, then fasted for 6 hours. Thirty (30) minutes prior to the reintroduction of food, rats were dosed subcutaneously (5 mL/kg) with 20 nmol/kg of test compound or 60 nmol/kg peptide 1 (pramlintide) diluted in an appropriate vehicle, after which food was returned, and lights went out. Automated food intake was monitored for the following 3 days, and rats were weighed once per day.
Food intake per rat was batched into 1-hour intervals and integrated into Gubra's GubraView data management system. Discrete food intake data was exported into MS Excel from which cumulative food intake data was generated. Cumulative food intake data was then transposed into GraphPad Prism (v8.0.1) for analysis of dark period feeding

Numbered stars: 1 amine (or outer) side, 2 acyl side, 3 side chain; on linkers, the order of the positions; unused ones are H or OH. Bridge positions count the residues as written; N and C are the ends. Square brackets hold non-standard residues; d marks the D form. Side chains are listed from the residue outwards. Peptide text beside a SMILES is read from it. * marks the point of attachment. C20 diacid = O=C(O)CCCCCCCCCCCCCCCCCCC(=O)*; C18 diacid = O=C(O)CCCCCCCCCCCCCCCCC(=O)*; γGlu = O=C(O)[C@H](CCC(=O)[*:2])N[*:1]; Aib = CC(C)(N)C(=O)O

The EC50 is the concentration needed to bring the measured effect to its halfway point. As usually defined, the half-life is the time needed for the level to fall by half in the phase considered. The low end stands for fast loss, the high end for slow loss. Regarding `CC[C@H](C)[C@H](NC(=O)[C@@H]1CCCN1C(=O)CNC(=O)[C@H](Cc1ccccc1)NC(=O)[C@H](CC(N)=O)NC(=O)C(C)(C)NC(=O)[C@H](CO)NC(=O)[C@H](CO)NC(=O)[C@H](Cc1c[nH]cn1)NC(=O)[C@H](CCCNC(=N)N)NC(=O)[C@H](CC(C)C)NC(=O)[C@H](Cc1ccccc1)NC(=O)[C@H](CC(N)=O)NC(=O)[C@H](C)NC(=O)[C@H](CC(C)C)NC(=O)[C@H](CCCNC(=N)N)NC(=O)[C@H](CCC(N)=O)NC(=O)[C@@H](NC(=O)[C@H](C)NC(=O)[C@@H]1CSSC[C@H](NC(=O)[C@H](CCCCN)NC(=O)[C@@H](N)CCCCNC(=O)CC[C@H](NC(=O)CC[C@H](NC(=O)CCCCCCCCCCCCCCCCC(=O)O)C(=O)O)C(=O)O)C(=O)N[C@@H](CC(N)=O)C(=O)N[C@@H]([C@@H](C)O)C(=O)N[C@@H](C)C(=O)N[C@@H]([C@@H](C)O)C(=O)N1)[C@@H](C)O)C(=O)N[C@@H](CC(C)C)C(=O)N1CCC[C@H]1C(=O)N1CCC[C@H]1C(=O)N[C@H](C(=O)N[C@@H](CC(N)=O)C(=O)N[C@H](C(=O)NCC(=O)N[C@@H](CO)C(=O)N[C@@H](CC(N)=O)C(=O)N[C@H](C(=O)N[C@@H](Cc1ccc(O)cc1)C(N)=O)[C@@H](C)O)C(C)C)[C@@H](C)O` [Peptide 66, K(γE-γE-C18diacid)K[CNTATC]ATQRLANFLRHSS(Aib)NFGPILPPTNVGSNTY-amide] (H-K([γGlu-γGlu-C18 diacid])KCNTATCATQRLANFLRHSS[Aib]NFGPILPPTNVGSNTY-NH2; disulfide 3-8), the “Ratio (selectivity hAMYR vs hCTR, ratio of EC50 values at the two receptors)” value in series [1] came out at 17. For the same compound, the values for the EC50 in series [1] and in series [2] were 418 pM and 7010 pM, respectively. Moreover, in series [3], the “Time taken to detect increase in fluorescence intensity” value is over 144 h. For the same compound, the figures for the half-life in series [4] (iv) and in series [4] (sc) were 9.4 h and 12.2 h, respectively.
On to `CC[C@H](C)[C@H](NC(=O)[C@@H]1CCCN1C(=O)CNC(=O)[C@H](Cc1ccccc1)NC(=O)[C@H](CC(N)=O)NC(=O)[C@H](CC(N)=O)NC(=O)[C@H](CO)NC(=O)[C@H](CO)NC(=O)[C@H](Cc1c[nH]cn1)NC(=O)[C@H](CCCNC(=N)N)NC(=O)[C@H](CC(C)C)NC(=O)[C@H](Cc1ccccc1)NC(=O)[C@H](CCC(=O)O)NC(=O)[C@H](C)NC(=O)[C@H](CC(C)C)NC(=O)[C@H](CCCNC(=N)N)NC(=O)[C@H](CCC(N)=O)NC(=O)[C@@H](NC(=O)[C@H](C)NC(=O)[C@@H]1CSSC[C@H](NC(=O)[C@@H](N)CCCCNC(=O)CC[C@H](NC(=O)CC[C@H](NC(=O)CCCCCCCCCCCCCCCCCCC(=O)O)C(=O)O)C(=O)O)C(=O)N[C@@H](CC(N)=O)C(=O)N[C@@H]([C@@H](C)O)C(=O)N[C@@H](C)C(=O)N[C@@H]([C@@H](C)O)C(=O)N1)[C@@H](C)O)C(=O)N[C@@H](CC(C)C)C(=O)N1CCC[C@H]1C(=O)N1CCC[C@H]1C(=O)N[C@H](C(=O)N[C@@H](CC(N)=O)C(=O)N[C@H](C(=O)NCC(=O)N[C@@H](CO)C(=O)N[C@@H](CC(N)=O)C(=O)N[C@H](C(=O)N[C@@H](Cc1ccc(O)cc1)C(N)=O)[C@@H](C)O)C(C)C)[C@@H](C)O` [Peptide 116] (H-K([γGlu-γGlu-C20 diacid])CNTATCATQRLAEFLRHSSNNFGPILPPTNVGSNTY-NH2; disulfide 2-7), for which the “Ratio (selectivity hAMYR vs hCTR, ratio of EC50 values at the two receptors)” value in series [1] is 8. The EC50 is 1210 pM in series [1], 9560 pM in series [2], 23.7 pM in series [5] and 9050 pM in series [6]. For the same compound, the “Cummulative food intake (% vehicle treated intake) At 12 h” value in the series with lean rats (at 12 h) was 51.7 % vehicle treated intake. The “Cummulative food intake (% vehicle treated intake) At 24 h” value with lean rats (at 24 h) amounted to 43.1 % vehicle treated intake. Besides, the “Cummulative food intake (% vehicle treated intake) At 48 h” value in the series with lean rats (at 48 h) was 50.2 % vehicle treated intake.

(Values after US20240067693A1, “POLYPEPTIDES AND USES THEREOF” (MEDIMMUNE LIMITED, priority 2020, published 2024).)
